Source: PubChem BioAssay AID2060627 (Molecular Pharmacology Branch, DTP, NCI, 2025)
Several values for one entry are separate records, joined by “and”; a condition that tells them apart may be missing. Equal entries are not always repeated.

System: 156681-154-R-J1-PDC complex spheroid viability
Assay: Anticancer human tumor 156681-154-R-J1-PDC patient-derived melanoma cell line growth inhibition [CLK]
Conditions: for viability, T/C: stronger effect = lower value
Text: A high-throughput screen of multi-cell type tumor spheroids was designed to identify active combinations of […] and targeted small molecules. Complex spheroids include a stromal component modeled by human endothelial cells (HUVEC) and fibroblasts modeled by human mesenchymal stem cells (MSCs). The concentration ranges selected for each drug and investigational agent were based upon clinically achievable concentrations if the clinical Cmax of the agent was known.
Compounds. The drugs and investigational agents: cirtuvivint (SM08502; NSC835563), CC-671 (NSC850746), vemurafenib (NSC761431), tapotoclax (NSC804041), sotorasib (NSC818433), adagrasib (NSC831453), MRTX-1133 (NSC836407), BAY2416964 (NSC825713), copanlisib (NSC816437), inavolisib (NSC800729), abemaciclib (NSC768073), osimertinib (NSC779217), entinostat (NSC756642), eltanexor (KPT-8602, NSC794443), venetoclax (NSC766270), ceralasertib (NSC777638), bortezomib (NSC756655), olaparib (NSC753686), talazoparib (NSC767125), alisertib (NSC759677), peposertib (NSC802822), gemcitabine (NSC613327), 5-fluorouracil (NSC19893), SN-38 (NSC673596), oxaliplatin (NSC266046), paclitaxel (NSC125973), and doxorubicin (NSC123127), were obtained from the National Cancer Institute (NCI) Developmental Therapeutics Program Chemical Repository. The FDA-approved anticancer drug set is available from the Developmental Therapeutics Program at https://dtp.cancer.gov/organization/dscb/obtaining/available plates.htm. […] The stock solutions were prepared in dimethyl sulfoxide (DMSO, Sigma-Aldrich, St. Louis, MO, cat. D2650), except for the platinum complexes which were prepared in saline (Quality Biological, Gaithersburg, MD, cat. 114-055-101), at 800-fold the tested concentration and stored at -70 degrees C prior to their use. All drugs and investigational agents were tested over a range starting from a high concentration at or near the clinical Cmax and decreasing in half-log increments. If the clinical Cmax for an agent had not been determined, the highest concentration tested was 10 microM.
Cell Culture. All cells were maintained in an incubator at 37 degrees C and 5% CO2 with 95% humidity. The PDC lines were cultured according to standard operating procedures established by the NCI PDMR. Briefly, all PDCs were thawed and cultured in Matrigel-coated flasks prepared with a working solution of 1X Ham's F-12 nutrient mix, without supplementation (Invitrogen, Waltham, MA, cat. 11765054), 100 U/mL penicillin-streptomycin (Invitrogen, cat. 15140122), and 2.5% Matrigel (Corning Inc., Corning, NY, cat. 354248) for the first three passages. The 947758-054-R-J2-PDC line was cultured in 6B/Colon 1A media, which includes advanced DMEM/F-12 (Thermo Fisher Scientific, cat. 12634028), 10 mM HEPES (Thermo Fisher Scientific, cat. 15630080), 1X GlutaMAX supplement (Thermo Fisher Scientific, cat. 35050061), 0.1 mg/mL primocin (InvivoGen, cat. ant-pm-2), 10% defined fetal bovine serum, heat inactivated (HyClone Laboratories Inc., cat. SH30070.03HI), 1.25 mM N-Acetyl-L-cysteine (Sigma-Aldrich, cat. A9165), 10 mM nicotinamide (Sigma-Aldrich, cat. N0636), 1X B-27 supplement (Thermo Fisher Scientific, cat. 17504044), 1X N-2 supplement (Thermo Fisher Scientific, cat. 17502048), and 10 microM Y-27632 dihydrochloride (Tocris Bioscience, cat. 1254). The 876862-298-R-J1-PDC was cultured in 6E media, which includes all 6B/Colon 1A media components plus 50% L-WRN conditioned media (ATCC, cat. CRL-3276), 50 ng/mL recombinant human EGF recombinant protein (hEGF; Thermo Fisher Scientific, cat. PHG0311), 10 ng/mL recombinant human fibroblast growth factor 10 (hGFG-10; PeproTech, cat. 100-26), 1 ng/mL recombinant human fibroblast growth factor 2 (hFGF-2; PeproTech, cat. 100-18B), and 1 µM prostaglandin E2 (PGE2; Tocris, cat. 2296). The 227483-062-R1-J1-PDC line was cultured in Panc media, containing all 6E components except hFGF-2, with the addition of 500 nM SB-431542 (Selleckchem, cat. S1067) and 10 nM gastrin (Tocris, cat. 3006). […]

[1] = curve of first compound, second compound 0.0316 µM
[2] = curve of first compound, second compound 0.1 µM
[3] = curve of first compound, second compound 0.316 µM
[4] = curve of first compound, second compound 1 µM
[5] = curve of first compound, second compound 3.16 µM
[6] = curve of first compound, second compound 10 µM
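Note: spheroids exposed to the agents for seven days.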
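Throughout, for viability, T/C: 100% = DMSO vehicle control viability.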

CC(CO)NC(=O)c1cc(-c2ccc(Cl)cc2)nn(-c2cnn(C)c2)c1=O (stereo not drawn)
viability, T/C (compound 0.0316 µM): 97.5% and 93.1% | viability, T/C (compound 0.1 µM): 73.8% and 82.1% | viability, T/C (compound 0.316 µM): 100% and 94.2% | viability, T/C (compound 1 µM): 94.3% and 99.3% | viability, T/C (compound 3.16 µM): 87.3% and 77.8% | viability, T/C (compound 10 µM): 51.8% and 58.1% | IC50 (curve of compound): > 10000 nM

NC(=O)C(=Cn1cnc(-c2cc(C(F)(F)F)cc(C(F)(F)F)c2)n1)c1cncnc1 + CNC(=O)c1ccc(Nc2nc(OC3CCCC3)c3c(-c4ccc5nc(C)oc5c4)c[nH]c3n2)c(OC)c1
IC50 [1]: 61.9 nM | IC50 [2]: < 9.49 nM | IC50 [3]: 33.2 nM | IC50 [4]: < 9.49 nM | IC50 [5]: < 9.49 nM | IC50 [6]: < 9.49 nM | viability, T/C (second compound 0.0316 µM, first compound 0.00949 µM): 64.7% | viability, T/C (second compound 0.0316 µM, first compound 0.03 µM): 81% | viability, T/C (second compound 0.0316 µM, first compound 0.0949 µM): 36.6% | viability, T/C (second compound 0.0316 µM, first compound 0.3 µM): 14% | viability, T/C (second compound 0.0316 µM, first compound 0.949 µM): 6.14% | viability, T/C (second compound 0.0316 µM, first compound 3 µM): 3.87% | viability, T/C (second compound 0.1 µM, first compound 0.00949 µM): 37.9% | viability, T/C (second compound 0.1 µM, first compound 0.03 µM): 52.5% | viability, T/C (second compound 0.1 µM, first compound 0.0949 µM): 33% | viability, T/C (second compound 0.1 µM, first compound 0.3 µM): 18.4% | viability, T/C (second compound 0.1 µM, first compound 0.949 µM): 6.15% | viability, T/C (second compound 0.1 µM, first compound 3 µM): 4.5% | viability, T/C (second compound 0.316 µM, first compound 0.00949 µM): 52.4% | viability, T/C (second compound 0.316 µM, first compound 0.03 µM): 53.7% | viability, T/C (second compound 0.316 µM, first compound 0.0949 µM): 23.7% | viability, T/C (second compound 0.316 µM, first compound 0.3 µM): 7.53% | viability, T/C (second compound 0.316 µM, first compound 0.949 µM): 3.12% | viability, T/C (second compound 0.316 µM, first compound 3 µM): 3.35% | viability, T/C (second compound 1 µM, first compound 0.00949 µM): 40.3% | viability, T/C (second compound 1 µM, first compound 0.03 µM): 45% | viability, T/C (second compound 1 µM, first compound 0.0949 µM): 7.8% | viability, T/C (second compound 1 µM, first compound 0.3 µM): 1.43% | viability, T/C (second compound 1 µM, first compound 0.949 µM): 1.06% | viability, T/C (second compound 1 µM, first compound 3 µM): 0.77% | viability, T/C (second compound 3.16 µM, first compound 0.00949 µM): 37.5% | viability, T/C (second compound 3.16 µM, first compound 0.03 µM): 22.1% | viability, T/C (second compound 3.16 µM, first compound 0.0949 µM): 4.21% | viability, T/C (second compound 3.16 µM, first compound 0.3 µM): 1.37% | viability, T/C (second compound 3.16 µM, first compound 0.949 µM): 1.03% | viability, T/C (second compound 3.16 µM, first compound 3 µM): 0.18% | viability, T/C (second compound 10 µM, first compound 0.00949 µM): 28.5% | viability, T/C (second compound 10 µM, first compound 0.03 µM): 24.2% | viability, T/C (second compound 10 µM, first compound 0.0949 µM): 3.92% | viability, T/C (second compound 10 µM, first compound 0.3 µM): 1% | viability, T/C (second compound 10 µM, first compound 0.949 µM): 1.5% | viability, T/C (second compound 10 µM, first compound 3 µM): 0.26%

C=CC(=O)N1CCN(c2nc(=O)n(-c3c(C)ccnc3C(C)C)c3nc(-c4c(O)cccc4F)c(F)cc23)C(C)C1 (stereo not drawn) + CN1CCN(c2cc(C(=O)Nc3cc4cc(-c5cnn(C)c5)ccc4cn3)ccn2)CC1
IC50 [1]: > 10000 nM | IC50 [2]: > 10000 nM | IC50 [3]: < 31.6 nM | IC50 [4]: < 31.6 nM | IC50 [5]: < 31.6 nM | IC50 [6]: < 31.6 nM | viability, T/C (second compound 0.0316 µM, first compound 0.0316 µM): 97.3% | viability, T/C (second compound 0.0316 µM, first compound 0.1 µM): 88% | viability, T/C (second compound 0.0316 µM, first compound 0.316 µM): 112% | viability, T/C (second compound 0.0316 µM, first compound 1 µM): 129% | viability, T/C (second compound 0.0316 µM, first compound 3.16 µM): 118% | viability, T/C (second compound 0.0316 µM, first compound 10 µM): 97.9% | viability, T/C (second compound 0.1 µM, first compound 0.0316 µM): 95.6% | viability, T/C (second compound 0.1 µM, first compound 0.1 µM): 78.6% | viability, T/C (second compound 0.1 µM, first compound 0.316 µM): 101% | viability, T/C (second compound 0.1 µM, first compound 1 µM): 99.9% | viability, T/C (second compound 0.1 µM, first compound 3.16 µM): 119% | viability, T/C (second compound 0.1 µM, first compound 10 µM): 100% | viability, T/C (second compound 0.316 µM, first compound 0.0316 µM): 28.5% | viability, T/C (second compound 0.316 µM, first compound 0.1 µM): 27.9% | viability, T/C (second compound 0.316 µM, first compound 0.316 µM): 23.8% | viability, T/C (second compound 0.316 µM, first compound 1 µM): 30% | viability, T/C (second compound 0.316 µM, first compound 3.16 µM): 29.6% | viability, T/C (second compound 0.316 µM, first compound 10 µM): 10.9% | viability, T/C (second compound 1 µM, first compound 0.0316 µM): 0.18% | viability, T/C (second compound 1 µM, first compound 0.1 µM): 3.34% | viability, T/C (second compound 1 µM, first compound 0.316 µM): 0.25% | viability, T/C (second compound 1 µM, first compound 1 µM): 0.17% | viability, T/C (second compound 1 µM, first compound 3.16 µM): 2% | viability, T/C (second compound 1 µM, first compound 10 µM): 0.82% | viability, T/C (second compound 3.16 µM, first compound 0.0316 µM): 0.77% | viability, T/C (second compound 3.16 µM, first compound 0.1 µM): 0.21% | viability, T/C (second compound 3.16 µM, first compound 0.316 µM): 0.12% | viability, T/C (second compound 3.16 µM, first compound 1 µM): 0.11% | viability, T/C (second compound 3.16 µM, first compound 3.16 µM): 2.22% | viability, T/C (second compound 3.16 µM, first compound 10 µM): 3.15% | viability, T/C (second compound 10 µM, first compound 0.0316 µM): 0.12% | viability, T/C (second compound 10 µM, first compound 0.1 µM): 0.14% | viability, T/C (second compound 10 µM, first compound 0.316 µM): 0.25% | viability, T/C (second compound 10 µM, first compound 1 µM): 0.17% | viability, T/C (second compound 10 µM, first compound 3.16 µM): 1.47% | viability, T/C (second compound 10 µM, first compound 10 µM): 0.3%

COC1C=CCC(C)C(C)S(=O)(=O)NC(=O)c2ccc3c(c2)N(CC2CCC21)CC1(CCCc2cc(Cl)ccc21)CO3 (stereo not drawn)
viability, T/C (compound 0.0316 µM): 86.6% and 107% | viability, T/C (compound 0.1 µM): 85.4% and 73.3% | viability, T/C (compound 0.316 µM): 86.8% and 70.1% | viability, T/C (compound 1 µM): 61.2% and 61.9% | viability, T/C (compound 3.16 µM): 14.6% and 10.7% | viability, T/C (compound 10 µM): 1.35% and 1.31% | IC50 (curve of compound): 1330 nM and 861 nM
